Results on one substance are retold here after paper PMC11383830, “TTK inhibitor OSU13 promotes immunotherapy responses by activating tumor STING” (JCI Insight, 2024).

This experiment deals with T1, LRRK2 (Homo sapiens, UniProt Q5S007).
T1 construct: LRRK2-NanoLuc fusion
As to the kind of experiment: NanoBRET in-cell target engagement, competitive displacement of K-9 tracer in transfected HEK293 cells. It is filed as cell-based.

T1 sequence (Q5S007 whole entry, the tested form may be a part): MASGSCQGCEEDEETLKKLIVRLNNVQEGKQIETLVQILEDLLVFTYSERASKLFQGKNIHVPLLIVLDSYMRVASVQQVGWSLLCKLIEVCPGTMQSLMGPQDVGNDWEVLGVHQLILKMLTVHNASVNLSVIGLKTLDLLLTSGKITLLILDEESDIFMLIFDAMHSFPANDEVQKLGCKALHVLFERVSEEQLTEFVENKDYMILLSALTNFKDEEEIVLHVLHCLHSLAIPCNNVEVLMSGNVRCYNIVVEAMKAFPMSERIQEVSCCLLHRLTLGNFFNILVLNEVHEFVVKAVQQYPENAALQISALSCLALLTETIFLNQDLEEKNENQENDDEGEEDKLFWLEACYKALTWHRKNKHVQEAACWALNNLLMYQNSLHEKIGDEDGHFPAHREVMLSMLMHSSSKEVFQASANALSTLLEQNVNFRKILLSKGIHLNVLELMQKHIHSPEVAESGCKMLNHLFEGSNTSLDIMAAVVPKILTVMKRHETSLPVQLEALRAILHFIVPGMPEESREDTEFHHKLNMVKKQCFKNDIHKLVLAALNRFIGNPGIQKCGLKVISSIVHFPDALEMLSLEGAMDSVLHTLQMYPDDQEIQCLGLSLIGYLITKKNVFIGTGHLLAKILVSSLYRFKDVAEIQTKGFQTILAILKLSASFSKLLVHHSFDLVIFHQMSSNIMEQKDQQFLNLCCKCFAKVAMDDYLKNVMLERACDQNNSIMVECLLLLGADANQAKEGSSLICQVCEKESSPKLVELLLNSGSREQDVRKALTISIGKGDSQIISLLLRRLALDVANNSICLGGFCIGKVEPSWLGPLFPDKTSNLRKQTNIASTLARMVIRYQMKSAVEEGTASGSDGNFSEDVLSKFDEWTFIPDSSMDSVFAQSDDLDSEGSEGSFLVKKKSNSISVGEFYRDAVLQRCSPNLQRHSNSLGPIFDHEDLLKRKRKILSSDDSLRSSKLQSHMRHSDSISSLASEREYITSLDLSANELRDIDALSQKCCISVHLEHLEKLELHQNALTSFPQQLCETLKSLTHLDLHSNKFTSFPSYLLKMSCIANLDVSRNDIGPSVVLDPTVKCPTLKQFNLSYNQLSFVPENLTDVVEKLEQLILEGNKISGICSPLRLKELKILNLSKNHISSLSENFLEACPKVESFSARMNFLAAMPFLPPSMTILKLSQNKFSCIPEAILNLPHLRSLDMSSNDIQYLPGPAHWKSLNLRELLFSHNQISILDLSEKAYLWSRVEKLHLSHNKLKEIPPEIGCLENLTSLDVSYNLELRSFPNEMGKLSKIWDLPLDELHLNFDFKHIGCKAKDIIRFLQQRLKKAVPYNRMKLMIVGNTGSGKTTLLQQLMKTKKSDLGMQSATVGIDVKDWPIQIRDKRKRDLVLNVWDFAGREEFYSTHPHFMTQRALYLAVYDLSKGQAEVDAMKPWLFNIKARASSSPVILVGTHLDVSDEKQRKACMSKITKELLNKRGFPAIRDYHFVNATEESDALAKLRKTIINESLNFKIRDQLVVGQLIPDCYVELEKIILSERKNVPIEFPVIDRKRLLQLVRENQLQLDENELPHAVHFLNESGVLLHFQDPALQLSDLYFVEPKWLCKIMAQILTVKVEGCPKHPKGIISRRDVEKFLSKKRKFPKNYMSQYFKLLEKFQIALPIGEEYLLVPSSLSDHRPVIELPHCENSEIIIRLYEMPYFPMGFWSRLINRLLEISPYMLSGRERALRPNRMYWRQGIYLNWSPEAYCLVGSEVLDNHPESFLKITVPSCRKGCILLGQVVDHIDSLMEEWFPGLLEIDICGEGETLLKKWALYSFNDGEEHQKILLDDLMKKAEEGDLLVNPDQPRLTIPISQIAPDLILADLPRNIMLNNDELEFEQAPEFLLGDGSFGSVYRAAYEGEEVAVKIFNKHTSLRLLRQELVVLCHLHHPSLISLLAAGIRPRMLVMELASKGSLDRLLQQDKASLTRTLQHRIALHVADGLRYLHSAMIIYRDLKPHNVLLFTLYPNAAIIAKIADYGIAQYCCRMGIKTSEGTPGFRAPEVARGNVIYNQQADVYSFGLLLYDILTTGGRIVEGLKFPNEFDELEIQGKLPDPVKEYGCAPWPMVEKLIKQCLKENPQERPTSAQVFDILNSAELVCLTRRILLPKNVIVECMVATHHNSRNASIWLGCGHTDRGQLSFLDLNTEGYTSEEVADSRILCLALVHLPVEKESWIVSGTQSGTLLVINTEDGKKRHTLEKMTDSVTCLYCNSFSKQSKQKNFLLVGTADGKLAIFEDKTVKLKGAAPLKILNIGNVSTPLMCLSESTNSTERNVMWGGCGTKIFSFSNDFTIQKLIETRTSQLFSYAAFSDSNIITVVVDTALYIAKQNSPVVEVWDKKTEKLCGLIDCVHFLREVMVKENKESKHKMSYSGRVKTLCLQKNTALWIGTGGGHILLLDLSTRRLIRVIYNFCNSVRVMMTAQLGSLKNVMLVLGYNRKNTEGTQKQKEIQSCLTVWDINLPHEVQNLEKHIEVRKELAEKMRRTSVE

One may read the EC50 as the midpoint of the concentration-response curve. Low readings indicate higher potency in that assay, high ones lower potency in that assay. Turning to OSU13, the EC50 worked out at 216 nM.
